From patent US20240058328A1, “MASITINIB FOR THE TREATMENT OF ALZHEIMER'S DISEASE” (AB SCIENCE, priority 2020, published 2024)

System: patients with Alzheimer's disease
Test: Phase 3 study AB09004: change from baseline in ADCS-ADL score
Format: in vivo, human
Parameters: key to δLSM (ADCS-ADL): LSM difference in ADCS-ADL change; positive = improvement
Settings: 4.5 mg/kg/day; for ΔLSM (ADCS-ADL): vs placebo, week 24; for δLSM (ADCS-ADL): week 24 from baseline
Protocol: An international, multicenter, randomized, double-blind, placebo-controlled phase 3 study was conducted with the objective to evaluate oral masitinib at a dose of 4.5 mg/kg/day as a treatment for Alzheimer's disease.
Eligible patients, aged at least 50 years, were diagnosed with dementia of Alzheimer's type according to Diagnostic and Statistical Manual of Mental Disorders (DSM)-IV criteria, and probable Alzheimer's disease according to NINCDS-ADRDA (National Institute of Neurological and Communicative Diseases and Stroke/Alzheimer's Disease and Related Disorders Association) criteria. […] Patients with any other cause of dementia not due to Alzheimer's disease were ineligible for the study.
Eligible patients were treated during 24 weeks with masitinib at a dose of 4.5 mg/kg/day (mg per kilo body weight per day) or with placebo. Treatment was administered as add-on therapy in patients who had been treated for a minimum of 6 months with a stable dose of cholinesterase inhibitors (donepezil, rivastigmine or galantamine) and/or memantine, with no changes foreseen in therapy throughout the study.
Primary analysis was based on the co-primary endpoints of: • Change from baseline in Alzheimer's Disease Cooperative Study Activities of Daily Living (ADCS-ADL) score. The ADCS-ADL assesses the competence of patients with Alzheimer's disease in basic and instrumental activities of daily living (ADLs). • Change from baseline in Alzheimer's Disease Assessment Scale-Cognitive Subscale (ADAS-Cog). The ADAS-Cog assesses cognition and memory.
Treatment effect (masitinib versus placebo) was assessed based on absolute change from baseline to week 24 by using an analysis of covariance model (ANCOVA linear model) with the following factors: treatment, baseline value, and stratification criteria of baseline MMSE score, age, ADCS-ADL total score, and ADAS-Cog total score.
For ADCS-ADL, the global score (i.e., the sum of 23 items rated by the caregiver) was used with a range from 0 to 78, wherein 78 implies full functioning with no impairment. Thus, a higher score signifies greater functional ability, while a lower score signifies greater (worse) impairment. Results are expressed as a least-squares means difference (δLSM) of absolute change in ADCS-ADL score from baseline; that is to say, the change over time in the ADCS-ADL score, or in other words the difference between the ADCS-ADL score at baseline (before treatment initiation) and the ADCS-ADL score after treatment with masitinib or with placebo. An increase in ADCS-ADL score with respect to baseline (i.e., a positive δLSM) indicates an improvement in the patient and therefore disease stability, whereas a decrease in ADCS-ADL score with respect to baseline (i.e., negative δLSM) indicates a worsening in the patient and therefore disease progression. Treatment-effect is reported as the difference between treatment-arms (ΔLSM) (calculated as δLSM[masitinib] minus δLSM[placebo]), with a positive value indicating a beneficial effect of treatment with masitinib as compared to treatment with placebo. In a scenario where both treatment-arms show worsening in activities of daily living (i.e., a negative δLSM), then a positive ΔLSM indicates a beneficial treatment effect for masitinib, i.e., the rate of decline in masitinib treated patients is slower than that of patients from the placebo-arm.
The comparison was carried out using the following information: • δLSM: least-squares means difference of absolute change in endpoint score at week 24 from baseline, either according to ADAS-Cog assessment or to ADCS-ADL assessment. • ΔLSM: Difference between treatment-arms (treatment-effect) calculated as δLSM[masitinib] minus δLSM[placebo]. • Δsub/Δoverall: Ratio of subpopulation's placebo-controlled treatment-effect (ΔLSM at W24 for masitinib 4.5 mg/kg/d parallel arm) versus overall study population's placebo-controlled treatment-effect (ΔLSM at W24 for masitinib 4.5 mg/kg/d parallel arm). […]

[1] = Baseline ADCS-ADL >47 (Table 11)

Cc1ccc(NC(=O)c2ccc(CN3CCN(C)CC3)cc2)cc1Nc1nc(-c2cccnc2)cs1 [masitinib, 4-(4-methylpiperazin-1-ylmethyl)-N-[4-methyl-3-(4-pyridin-3ylthiazol-2-ylamino)phenyl]benzamide]
ΔLSM (ADCS-ADL) (Baseline ADAS-Cog >35): −0.788 points | ΔLSM (ADCS-ADL) (Baseline ADCS-ADL <32): −0.9123 points | δLSM (ADCS-ADL) (Baseline ADCS-ADL <32): 0.8656 | ΔLSM (ADCS-ADL) (Baseline ADCS-ADL <35): 0.2942 points | δLSM (ADCS-ADL) (Baseline ADCS-ADL <35): 0.9816 | ΔLSM (ADCS-ADL) (Baseline ADCS-ADL <38): −0.2109 points | δLSM (ADCS-ADL) (Baseline ADCS-ADL <38): 1.9901 | ΔLSM (ADCS-ADL) (Baseline ADCS-ADL <41): 1.0592 points | δLSM (ADCS-ADL) (Baseline ADCS-ADL <41): 3.2426 | ΔLSM (ADCS-ADL) (Baseline ADCS-ADL <47): 0.9542 points | δLSM (ADCS-ADL) (Baseline ADCS-ADL <47): 2.0776 | ΔLSM (ADCS-ADL) (Baseline ADCS-ADL <50): +0.3062 points | ΔLSM (ADCS-ADL) (Baseline ADCS-ADL <50, listed as M4.5, 4.5 mg/kg/day): 0.3062 points | δLSM (ADCS-ADL) (Baseline ADCS-ADL <50): 1.5300 | ΔLSM (ADCS-ADL) (Baseline ADCS-ADL >39): +2.0733 points | ΔLSM (ADCS-ADL) (Baseline ADCS-ADL >39, listed as M4.5, 4.5 mg/kg/day): 2.0733 points | δLSM (ADCS-ADL) (Baseline ADCS-ADL >39): 0.6655 | ΔLSM (ADCS-ADL) [1]: 2.1676 points | δLSM (ADCS-ADL) [1]: 1.0869 | ΔLSM (ADCS-ADL) (Baseline ADCS-ADL >55): +3.1871 points | ΔLSM (ADCS-ADL) (Baseline ADCS-ADL >55, listed as M4.5, 4.5 mg/kg/day): 3.1871 points | δLSM (ADCS-ADL) (Baseline ADCS-ADL >55): 0.8306 | ΔLSM (ADCS-ADL) (Baseline ADCS-ADL ≤39): +0.7132 points | ΔLSM (ADCS-ADL) (Baseline ADCS-ADL ≤39, listed as M4.5, 4.5 mg/kg/day): 0.7132 points | δLSM (ADCS-ADL) (Baseline ADCS-ADL ≤39): 2.8513 | ΔLSM (ADCS-ADL) (Baseline ADCS-ADL ≤55): +0.4577 points | ΔLSM (ADCS-ADL) (Baseline ADCS-ADL ≤55, listed as M4.5, 4.5 mg/kg/day): 0.4577 points | δLSM (ADCS-ADL) (Baseline ADCS-ADL ≤55): 1.3484 | ΔLSM (ADCS-ADL) (Baseline ADCS-ADL ≥32): 1.9799 points | δLSM (ADCS-ADL) (Baseline ADCS-ADL ≥32): 0.9536 | ΔLSM (ADCS-ADL) (Baseline ADCS-ADL ≥35): 2.0209 points | δLSM (ADCS-ADL) (Baseline ADCS-ADL ≥35): 0.9909 | ΔLSM (ADCS-ADL) (Baseline ADCS-ADL ≥38): +2.3285 points | ΔLSM (ADCS-ADL) (Baseline ADCS-ADL ≥38, listed as M4.5, 4.5 mg/kg/day): 2.3285 points | δLSM (ADCS-ADL) (Baseline ADCS-ADL ≥38): 1.0071 | ΔLSM (ADCS-ADL) (Baseline ADCS-ADL ≥41): 2.0192 points | δLSM (ADCS-ADL) (Baseline ADCS-ADL ≥41): 0.8077 | ΔLSM (ADCS-ADL) (Baseline ADCS-ADL ≥47): 2.1676 points | δLSM (ADCS-ADL) (Baseline ADCS-ADL ≥47): 1.0869 | ΔLSM (ADCS-ADL) (Baseline ADCS-ADL ≥50): +3.2315 points | ΔLSM (ADCS-ADL) (Baseline ADCS-ADL ≥50, listed as M4.5, 4.5 mg/kg/day): 3.2315 points | δLSM (ADCS-ADL) (Baseline ADCS-ADL ≥50): 0.7638 | ΔLSM (ADCS-ADL) (MMSE <13): −9.2849 points | δLSM (ADCS-ADL) (MMSE <13): −10.9758 | ΔLSM (ADCS-ADL) (MMSE <14): −3.5751 points | δLSM (ADCS-ADL) (MMSE <14): −4.6507 | ΔLSM (ADCS-ADL) (MMSE <15): −0.5657 points | δLSM (ADCS-ADL) (MMSE <15): −3.1413 | ΔLSM (ADCS-ADL) (MMSE <16): −0.6926 points | δLSM (ADCS-ADL) (MMSE <16): −2.3199 | ΔLSM (ADCS-ADL) (MMSE <17): 0.5605 points | δLSM (ADCS-ADL) (MMSE <17): −1.0314 | ΔLSM (ADCS-ADL) (MMSE [12-20]): +1.3770 points | ΔLSM (ADCS-ADL) (MMSE [12-20], listed as M4.5, 4.5 mg/kg/day): 1.3770 points
